Test results reported in the METLIN SMRT retention time set (Domingo-Almenara et al. 2019).

Test: gradient 5% acetonitrile 3 min, to 50% in 2 min, to 85% in 15 min, held 3 min, 100 µL/min
Settings: column: Zorbax Extend-C18 2.1 x 50 mm; eluents: water / acetonitrile, 0.1% formic acid
In short: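 Retention times of pure standards were taken from adduct peaks that were selected by computer and manually inspected. Over 3 months, mixtures of ~100 molecules were run by HPLC–quadrupole time-of-flight mass spectrometry in positive and negative ionization mode. The Zorbax Extend-C18 column (2.1 × 50 mm, 1.8 μm) ran at 100 μL/min in water and acetonitrile, each containing 0.1% formic acid, with 40 μL dead volume and 900 μL dwell volume.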

SMILES | RP-LC retention time
CCCCCCCCOC(=O)/C=C/c1ccc(O)c(O)c1 | 630 s
Cc1cccc(-c2noc(C3CCCN3C(=O)NCCc3ccccc3)n2)c1 (stereo not drawn) | 593 s
Cc1cc(C)c2c(-n3cccc3)nn(CC(=O)NCC(C)c3ccccc3)c2n1 (stereo not drawn) | 1040 s
N#Cc1ccccc1OCC(O)CNCCNC(=O)Nc1ccccc1 (stereo not drawn) | 696 s
Cc1cc(NC(=O)c2cn(C)nc2S(=O)(=O)N2CCSCC2)ccc1F | 960 s
CC(Cc1cccs1)NC(=O)NCc1cccc2ccccc12 (stereo not drawn) | 881 s
COCC(=O)N1CCCN(C2=NS(=O)(=O)C(c3ccc(Cl)cc3)=C2C)CC1 | 723 s
O=C(NCCc1c[nH]c2ccccc12)c1cc(=O)c(OCc2ccc(F)cc2)co1 | 765 s
CC1CN=C2C=C(N3CCN(C(=O)NCCc4ccccc4)CC3)N=CN21 (stereo not drawn) | 620 s
COCCc1noc(-c2cnc3nc(C)ccc3c2Nc2cccc(F)c2)n1 | 729 s
CCOc1ccc(NC(=O)C2CCN(S(C)(=O)=O)c3cc(Cl)ccc3O2)cc1 (stereo not drawn) | 877 s
CC(=O)N1CCc2cc(N3CC(C(=O)Nc4ccc(C)cc4Cl)CC3=O)ccc21 (stereo not drawn) | 735 s
COc1ccc(CN2CCc3nc(N4CCN(c5ncccn5)CC4)ncc3C2)cc1OC | 626 s
Cc1ccc(CN2CCC(c3nc(-c4cnccn4)n[nH]3)CC2)c(C)c1 | 593 s
COc1cc(OC)cc(C(=O)N2CCN=C2N2CCCCC2)c1 | 646 s
CC(C)Sc1ccc(CC(=O)NCC2CCN(C(=O)c3ccccc3F)CC2)cc1 | 833 s
CCn1c(=O)n(CC(=O)N2CCCC2)c(=O)c2cnc(-c3ccc(Cl)cc3)nc21 | 1010 s
Cc1nn(CC(=O)NCCc2ccco2)c(=O)c2c(-n3cccc3)n(-c3ccc(Cl)cc3)nc12 | 973 s
CCCN1C(=O)COc2ccc(-c3csc(NC(=O)c4ccc(Br)cc4)n3)cc21 | 1160 s
O=C(CCc1c(-c2ccc(Cl)cc2)nc2ccccn12)NCc1ccc2c(c1)OCO2 | 654 s
COC(=O)c1cc2c(=O)n(CCc3c[nH]c4ccc(OC)cc34)ccc2nc1C | 774 s
COc1cc(NC(=O)C2CCN(c3c(C(=O)N4CCC(C)CC4)cnc4snc(C)c34)CC2)cc(OC)c1 | 1010 s

SMILES | RP-LC retention time
CCCN1C(=O)C(CC(=O)NC2CCCC2)Sc2ncccc21 (stereo not drawn) | 741 s
CS(=O)(=O)N(Cc1ccncc1)C1CN(S(=O)(=O)c2ccccc2)C1 | 595 s
CC(=O)N1CCc2cc(CNS(=O)(=O)c3ccc(Br)cc3)ccc21 | 830 s
COc1ccc(CC(=O)N2CCC3(C2)C(=O)Nc2ccc(OC)cc23)c(Cl)c1 (stereo not drawn) | 768 s
NC(=O)C1CCN(C(=O)CN2c3ccc(Br)cc3-c3ccccc3S2(=O)=O)CC1 | 705 s
COC(=O)c1c(C)[nH]c(C(=O)N2CCC(CC(=O)NCc3ccc(OC)cc3)CC2)c1C | 715 s
Cc1oc(C(C)C)nc1C(=O)NCc1ccc(C(F)(F)F)cc1 | 1060 s
Cc1ccc(Cl)cc1NC(=O)N1CCC(c2cc(N)on2)CC1 | 736 s
O=C(NC1CCN(c2cc(-c3cccs3)[nH]n2)C1)c1cccc(Cl)c1 (stereo not drawn) | 719 s
COCc1nnc(C(=O)Nc2ccc(C(=O)NCCc3c[nH]c4ccc(C)cc34)cc2)s1 | 844 s
O=C(NCC1CCOCC1)Nc1ccc(Cl)cc1C(F)(F)F | 846 s
CCc1nn2c(CNS(=O)(=O)c3ccc(Cl)cc3C)c(-c3ccccc3)nc2s1 | 1050 s
O=C(NCc1ccco1)C1CCN(c2cncnc2N2CCCCC2)CC1 | 646 s
CC1CCN(C(=O)CN(C)S(=O)(=O)c2ccc3c(c2)CCCC(=O)N3)CC1 | 713 s
CCOc1cc(=O)n2c(c1C(=O)OCc1ccc(C)cc1)CCCCC2 | 1010 s
COc1ccc(OC)c2c1cc1n2CC(C)(C(=O)NC2CCCCCCC2)N(CCN(C)C)C1=O (stereo not drawn) | 760 s
OC1(c2ccccn2)CCOC2(CCN(Cc3cccc(Cl)c3)CC2)C1 (stereo not drawn) | 584 s
COc1ccc(-c2csc(SCc3ccc(C(=O)N4CCOCC4)o3)n2)cc1OC | 783 s
CCC(=O)N1CCc2cc(N3CC(C(=O)Nc4ccc(OC)c(F)c4)CC3=O)ccc21 (stereo not drawn) | 738 s
CCn1cc(C(=O)NCc2ccc(F)cc2)c(S(=O)(=O)N2CCSCC2)n1 | 915 s
CC(=O)Nc1ccc(NC(=O)Cn2cccc(-c3nc(-c4ccc(Cl)cc4)no3)c2=O)cc1 | 937 s
N#Cc1ccc(NC(=O)Cn2cccc(-c3nc(-c4ccc(Cl)cc4)no3)c2=O)cc1 | 933 s

SMILES | RP-LC retention time
CC(=O)Nc1c(C)noc1/C=C\c1ccc(S(=O)(=O)N2CCN(c3ncccn3)CC2)cc1 | 762 s
CSc1ccccc1NC(=O)c1cc2nc(C)ccc2o1 | 756 s
Cc1nc2scc(C)n2c(=O)c1NC(=O)CCSc1ccccc1 | 675 s
COc1ccc(-n2c(=O)c3sccc3n(Cc3nc(-c4cccc(C)c4)no3)c2=O)cc1 | 1020 s
CCN1C(=O)COc2ccc(-c3nc(NC(=O)c4cccs4)sc3C)cc21 | 990 s
CCC(C)NC(=O)N1c2cccnc2N(C(C)C)C(=O)C1C (stereo not drawn) | 850 s
COc1ccc2c(c1)CCN(C(=O)CNC(=O)c1ccc(=O)[nH]c1)C2 | 583 s
CCC(C)n1c(=O)c2ccccc2n(Cc2nc(-c3cccc(Cl)c3)no2)c1=O (stereo not drawn) | 1270 s
CCNc1cc(N2CCC(CCC(=O)NCC3CC3)CC2)ncn1 | 588 s
CCC(C)NS(=O)(=O)c1c(C)nn(-c2ccc(-c3ccc(C)cc3)nn2)c1C (stereo not drawn) | 1040 s
COc1cc(-c2noc(C3CC(=O)N(c4ccc(C)c(F)c4)C3)n2)cc(OC)c1OC (stereo not drawn) | 976 s
CCOc1ccccc1-c1noc(-c2nnn3c2COC(c2ccc(C)cc2C)C3)n1 (stereo not drawn) | 1290 s
O=C(NCc1ccc(F)cc1F)c1c(O)c2cccnc2n(Cc2ccccc2)c1=O | 1400 s
Cc1noc(C)c1CC(=O)N1CCC2(CC1)N(CC1CC1)C(=O)CS2=O (stereo not drawn) | 613 s
O=C(c1ccnc(-c2cccs2)c1)N1CCN(c2ccccn2)CC1 | 605 s
Cc1ccc(S(=O)(=O)c2cnc3ccc(F)cc3c2N2CCOCC2)cc1C | 892 s
COc1ccc(-c2cc3c(=O)n(Cc4nc(-c5ccccc5)oc4C)ccn3n2)cc1OC | 966 s
CC(C)CN1CCN(Cc2nc(-c3ccc(N4CCSCC4)nc3)no2)CC1 | 635 s
Cn1c(SCC(N)=O)nnc1-c1sc2cc(Cl)ccc2c1Cl | 702 s
CCN(CC)C(=O)Cn1c(CO)nc2ccccc21 | 563 s
c1ccc(-c2ccc3c(c2)NC(C2Nc4cc(-c5ccccc5)ccc4O2)O3)cc1 (stereo not drawn) | 1240 s
Cn1nccc1-c1cccc(-c2noc(-c3ccc(F)cc3)n2)c1 | 915 s

SMILES | RP-LC retention time
Cc1cc(C2CCCN2C(=O)c2cc(-c3ccccc3)no2)no1 (stereo not drawn) | 868 s
COc1ccc(-c2noc(C3CCCN3C(=O)Nc3ccc4c(c3)OCO4)n2)cc1 (stereo not drawn) | 884 s
O=C(CN1CC=C(c2cnn(-c3ccccc3)c2)CC1)Nc1ccc2c(c1)OCCO2 | 675 s
O=C(CSc1ncnc2c1cnn2-c1ccc(Cl)cc1)Nc1ccc(F)cc1F | 750 s
CCOc1ccc(NC(=O)Cn2c(=O)n(-c3ccccc3)c(=O)c3sc(SCC)nc32)cc1 | 981 s
Cc1cc(C)cc(N2C(=O)CN(S(C)(=O)=O)CC2(C)C(=O)NCc2ccccc2)c1 (stereo not drawn) | 851 s
COc1ccc2[nH]c3c(c2c1)CCNC31CCN(S(=O)(=O)c2c(C)nn(C)c2C)CC1 | 641 s
CSc1ncccc1-c1nc(-c2ccc3oc(C)nc3c2)no1 | 1100 s
Cc1ccc(-c2noc(-c3ccc(N4CCN(c5cc(C)ccc5C)CC4)nc3)n2)cc1 | 749 s
O=C(COc1ccccc1F)NC1CCCCC1N1C(=O)CSC1=O (stereo not drawn) | 768 s
CCN1CCN(CCCNC(=O)c2ccc3c(c2)N(C)C(=O)C2CCCCN32)CC1 (stereo not drawn) | 554 s
CCCc1ccc(S(=O)(=O)N2CCC(n3c(-c4ccco4)nc4cccnc43)C2)cc1 (stereo not drawn) | 1010 s
COc1ccc(NC(=O)Cn2ccc3c(=O)n(C)c(=O)n(C)c32)c(OC)c1 | 665 s
COc1ccc(C(=O)Nc2ccc(-c3cn4ccc(C)nc4n3)cc2)cc1 | 632 s
COc1ccc(C2C(C(=O)Nc3cc(OC)ccc3OC)c3ccccc3C(=O)N2C)cc1 (stereo not drawn) | 929 s
O=C(NCc1ccco1)c1c(O)c2cccnc2n(-c2ccc(F)cc2)c1=O | 1280 s
Clc1nnc(NC2CCCCC2)c(Cl)c1Cl | 1200 s
CCN1CCN(CCCNc2nnc(-c3nc(C4CC4)no3)c3ccccc23)CC1 | 584 s
Cc1cc(-c2nnc(C3CC3)o2)c(C)n1CC(=O)Nc1ccc(N2CCOCC2)cc1 | 700 s
CC1CN(C(=O)Cn2cc(SCC(=O)NC3CCCC3)c3ccccc32)CC(C)O1 (stereo not drawn) | 826 s
COc1ccc(-c2nc(-c3nnn(Cc4ccccc4)c3C)no2)cc1OC | 959 s
Cn1c(=O)c2cc(C(=O)NCc3ccccc3Cl)sc2n(C)c1=O | 795 s
